Source: US10150804B2, “Compositions and methods for imaging cancer” (BRITISH COLUMBIA CANCER AGENCY BRANCH, priority 2014, dated 2018)
Where two headings read alike, the source gives them in different places.

Tests used:
[1] = target: T1, sstr1 (Homo sapiens, UniProt P30872); test: standard filtration competitive binding assay, sstr1 membranes; details: 0.2 nM 125I standard
T1 construct: purchased PerkinElmer; host or cells: Chinese hamster ovary K1 cells (transfected)
Procedure: After successful synthesis, the activity of ^19F-AMBF3-TATE was examined in vitro. Membranes from Chinese hamster ovary K1 cells transfected with sstr1, sstr2, sstr3, sstr5, and [^125I]-Tyr-somatostatin-14 were obtained from PerkinElmer. […] Briefly, membranes ([…]) were incubated with the ^125I-labelled standard at a concentration of 0.05 nM for sstr2 or 0.2 nM for other subtypes. […] After incubation (37° C., 1 h), the wells were aspirated and washed 8 times with 50 mM ice-cold buffer (Tris-HCl, pH 7.4) over grade GF/B filters. The filters were removed and counted by a γ counter (Cobra II; Packard). Data were fitted to a 1-site competition model (GraphPad Prism 6.1 software) to calculate Ki.

[2] = 19F-NMR kinetic analysis of solvolysis/defluoridation of AMBF3; assay type: physicochemical
Procedure: Data are scaled 1000,000 min.

[3] = test system: AR42J tumour-bearing mice; details: excess competitor 69/71Ga-DOTATATE
Procedure: After labelling, imaging was undertaken. […] Rat pancreatic adenocarcinoma cells (10^7 AR42J cells) were freshly expanded in a mixture of phosphate-buffered saline and Matrigel (Corning) and inoculated subcutaneously in female immunocompromised mice (NOD SCID [non-obese diabetic severe combined immunodeficient] IL2r-γ-null, bred in house). The tumours were grown for 2 wk until they reached 5-7 mm in diameter. […] Sixty minutes after injection, the mice were anesthetized with isoflurane and euthanized by carbon dioxide. The organs were harvested, rinsed with saline, blotted dry, and collected in previously weighed tubes. The tubes containing the organs were counted in a Cobra-II γ counter. The tissue weight and associated count per minute were used to calculate the percentage injected dose per gram of tissue (% ID/g). Images were acquired using a multimodality PET/CT system (Inveon; Siemens).

T1 sequence (P30872 whole entry): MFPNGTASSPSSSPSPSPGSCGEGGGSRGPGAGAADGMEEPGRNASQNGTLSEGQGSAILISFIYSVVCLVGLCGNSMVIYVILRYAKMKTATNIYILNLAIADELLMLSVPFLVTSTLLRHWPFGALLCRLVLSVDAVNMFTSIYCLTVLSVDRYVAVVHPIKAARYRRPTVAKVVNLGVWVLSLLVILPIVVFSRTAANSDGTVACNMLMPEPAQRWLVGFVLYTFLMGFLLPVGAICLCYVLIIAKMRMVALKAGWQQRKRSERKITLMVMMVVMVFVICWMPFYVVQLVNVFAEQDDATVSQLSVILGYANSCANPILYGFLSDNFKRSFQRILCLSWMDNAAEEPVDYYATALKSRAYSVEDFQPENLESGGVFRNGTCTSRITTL

Molecule: C[C@@H](O)[C@H](NC(=O)[C@@H]1CSSC[C@H](NC(=O)[C@@H](Cc2ccccc2)NC(=O)Cn2cc(C[N+](C)(C)C[B-](F)(F)F)nn2)C(=O)N[C@@H](Cc2ccc(O)cc2)C(=O)N[C@H](Cc2c[nH]c3ccccc23)C(=O)N[C@@H](CCCCN)C(=O)N[C@@H]([C@@H](C)O)C(=O)N1)C(=O)O [AMBF3-TATE]
- displacement of binding to sstr1 [1]: No significant displacement

Molecule: C#CC[N+](C)(C)C[B-](F)(F)F [alkynyl-AMBF3, N-propargyl-N,N-dimethyl-ammoniomethyltrifluoroborate]
- half-life ([2]; 19F NMR, read-out: solvolysis t1/2 (converted)): 312 h
- half-life ([2]; 19F-NMR, first-order fit (FIG. 10), read-out: half-life of defluoridation): 0.325 h

Molecule: ^18F-AMBF3-TATE
- blocking efficiency (tumour uptake) [3]: 97%
